# Results from patent US9629843B2, “MTOR modulators and uses thereof” (The Regents of the University of California, priority 2008, dated 2017).
# “Also recorded” adds a separate entry of the source.
# Key:
# [1] = test system: cap-dependent translation; assay: Cap-dependent translation, m7GTP affinity, p190 cells; assay type: cell-based; conditions: IM at 5 μM; FIG. 38D
# SGK1 pS422 = assay: HM (pS422) phosphorylation of flag-tagged SGK1 in HEK293 cells; assay type: cell-based, Human; conditions: insulin, FIG. 28C
# [2] = test system: S6K, S6, 4EBP1 phosphorylation in L6 myotubes; assay: Phosphorylation of S6K, S6 and 4EBP1 in insulin stimulated L6 myotubes; assay type: cell-based
# [3] = Metabolic stability in microsome and cellular assays; assay type: in vitro ADME
# [4] = Pharmacokinetics of PP242; conditions: in vivo
# [5] = test system: ENaC-dependent Na+ current
# [6] = test system: Akt, S6, 4EBP1 phosphorylation in tissues; assay: In vivo effect on insulin signaling in fat, skeletal muscle and liver of mice; parameters: species or system C57BL/6 mice
# Tolerability in rats = assay type: in vivo; conditions: 10, 30 or 100 mg/kg, four times or twice daily, p.o.
# [7] = test system: myristolated-Akt transgenic thymocytes tumors; assay: Akt murine allograft tumor model; assay type: in vivo, NOD/SCID mice
# SGK1 phosphorylation = SGK1 phosphorylation in mpkCCD cells (mobility shift immunoblot); assay type: cell-based; conditions: at a concentration of 0.3 μM
# 4EBP1 binding to eIF-4E = assay: m7GTP cap pull-down assay in L6 myotubes; assay type: cell-based; conditions: insulin stimulated L6 myotubes; FIG. 10
# [8] = test system: Akt-S473 and S6 phosphorylation in T cells; assay: Phosflow of anti-CD3 stimulated murine splenocytes; assay type: cell-based
# [9] = test system: Akt substrates (GSK3, TSC2, FoxO1/O3a) in L6 myotubes; assay: Phosphorylation of Akt substrates in insulin stimulated L6 myotubes; assay type: cell-based; conditions: FIG. 6
# [10] = test system: Akt phosphorylation (S473, T308) in L6 myotubes; assay: Akt phosphorylation in insulin stimulated L6 myotubes (immunoblot); assay type: cell-based; conditions: 100 nM insulin, FIG. 3
# Protocol: L6 myoblasts were grown typically grown in DMEM supplemented with about 10% FBS, glutamine and penicillin/streptomycin. Confluent L6 myoblasts were differentiated into mytubes by culturing them for approximately 5 days in media containing about 2% FBS. L6 myotubes were maintained in media containing approximately 2% FBS until use.
# In order to compare the effect of TORKinibs and PIK-90 on Akt phosphorylation, L6 myotubes were serum starved overnight and incubated with inhibitors or about 0.1% DMSO for approximately 30 minutes prior to stimulation with insulin (e.g. 100 nM) for about 10 minutes. Cells were lysed by scraping into ice cold lysis buffer (generally: 300 mM NaCl, 50 mM Tris pH 7.5, 5 mM EDTA, 1% TRITON™ X-100, 0.02% NaN3, 20 nM microcystin, Sigma phosphatase inhibitor cocktails 1 and 2, Roche protease inhibitor cocktail and 2 mM PMSF). After contacting cells with lysis buffer, the solution was briefly sonicated. Lysates were cleared by centrifugation, resolved by SDS-PAGE, transferred to nitrocellulose and immunoblotted using antibodies to phospho-Akt S473, phospho-Akt T308, Akt, and β-actin (Cell Signaling Technologies).
# [11] = test system: p70S6K, 4EBP1 phosphorylation in MEFs; assay: Phosphorylation of 70S6K and 4EBP1 in mouse embryonic fibroblasts; assay type: cell-based; conditions: wild-type and SIN1−/− MEFs; FIG. 11
# Protocol: Wild-type and SIN1−/− primary mouse embryonic fibroblasts (MEFs) were grown in DMEM supplemented with about 10% FBS, glutamine and penicillin/streptomycin. MEFs were treated with TORKinib at approximately 2.5, 0.63, and 0.16 uM; rapamycin at about 15 nM; or PIK-90 at about 625 nM for approximately 30 minutes prior to insulin stimulation (e.g. 100 nM) for about 10 minutes. Cells were lysed by scraping into ice cold lysis buffer (generally: 300 mM NaCl, 50 mM Tris pH 7.5, 5 mM EDTA, 1% TRITON™ X-100, 0.02% NaN3, 20 nM microcystin, Sigma phosphatase inhibitor cocktails 1 and 2, Roche protease inhibitor cocktail and 2 mM PMSF). After contacting cells with lysis buffer, the solution was briefly sonicated. Lysates were cleared by centrifugation, resolved by SDS-PAGE, transferred to nitrocellulose and immunoblotted using antibodies to phospho-p70S6K T389, phospho-4EBP1 T37/46, phospho-4EBP1 S65, and β-actin (Cell Signaling Technologies).
# Tolerability in mice = assay type: in vivo; conditions: 10, 30 or 100 mg/kg, four times or twice daily, p.o.
# [12] = test system: mTORC2/AKT and mTORC1 signaling; assay: mTORC2/AKT and mTORC1 signaling in p190 cells (western blot); assay type: cell-based; conditions: FIGS. 38A-38B
# Protocol: Western blots of p190 cells treated for 1.5 hr (a) or 3 hr (b) with indicated inhibitors are depicted in FIG. 38A and FIG. 38B. […] Clinically achievable concentrations of IM (1.0 μM) and DA (100 nM) were used for the combination treatments. See also FIGS. 40A-40B. Activation of PI3K was quantified in cells by signal pixel intensity and localized area of PIP3 accumulation by confocal microscopy, as depicted in FIG. 38C. […] A minimum of 250 cells was quantified from 2 separate images. […] Representative images depict PIP3 accumulation, nuclear content (DAPI stain) merged onto DIC images (13.5 μm scale bar). […] Autophagy (LC3 puncta accumulation), loss of proliferation (EdU accumulation), and distinct localization patterns of Foxo1 were assessed by confocal microscopy and representative cells were magnified for clarity. Cytoplasmic localization of Foxo1 corresponds to AKT activation, whereas nuclear accumulation signifies AKT inhibition.
# p70S6K phosphorylation = p70S6K phosphorylation in mpkCCD cells; assay type: cell-based
# [13] = test system: ENaC-dependent Na+ current; assay: ENaC-dependent Na+ transport in mpkCCD cells
# [14] = Genetic toxicology (mini-Ames test)
# [15] = test system: Akt phosphorylation (S473, T308) in MEFs; assay: Akt phosphorylation in wild-type and SIN1−/− mouse embryonic fibroblasts (immunoblot); assay type: cell-based
# Protocol: Wild-type and SIN1−/− primary mouse embryonic fibroblasts (MEFs) were grown in DMEM supplemented with about 10% FBS, glutamine and penicillin/streptomycin. MEFs were treated with TORKinib at about 2.5, 0.63, and 0.16 uM; rapamycin at approximately 15 nM; or PIK-90 at 625 nM for 30 minutes prior to insulin stimulation (e.g. 100 nM) for 10 minutes. Cells were lysed by scraping into ice cold lysis buffer (typically 300 mM NaCl, 50 mM Tris pH 7.5, 5 mM EDTA, 1% TRITON™ X-100, 0.02% NaN3, 20 nM microcystin, Sigma phosphatase inhibitor cocktails 1 and 2, Roche protease inhibitor cocktail and 2 mM PMSF). After contacting cells with lysis buffer, the solution was briefly sonicated. Lysates were cleared by centrifugation, resolved by SDS-PAGE, transferred to nitrocellulose and immunoblotted using antibodies to phospho-Akt S473, phospho-Akt T308, Akt, and β-actin (Cell Signaling Technologies).
# [16] = test system: PI3K signaling (PIP3 accumulation); assay: PIP3 accumulation in p190 cells by confocal microscopy; assay type: cell-based; conditions: 20 and 200 nM, 4 hr; FIG. 38C
smiles,measurement,setting,value
CC(C)n1nc(-c2cc3cc(O)ccc3[nH]2)c2c(N)ncnc21 [PP242],cap-dependent translation,[1],inhibit cap-dependent translation
same,pS422-SGK1 band,SGK1 pS422,abrogated
same,phosphorylation of 4EBP1 at S65,[2],fully inhibits
same,phosphorylation of 4EBP1 at T70,[2],neither rapamycin nor TORKinib affect
same,phosphorylation of 4EBP1 at T37/46,[2]; listed as TORKinib,fully inhibits; also recorded: able to inhibit
same,metabolic stability,[3],metabolically stable
same,clearance,[4],moderate
same,volume of distribution,[4],good
same,oral bioavailability (F %),[4]; po,30-70%
same,toxic effect of prolonged treatment,[5],diminishes electrical resistance and causes morphological changes
same,S6 phosphorylation,[6]; all tissues examined,equally inhibited
same,phosphorylation of 4EBP1 on T37/46 and S65,[6]; all tissues examined,effective at blocking
same,phosphorylation of Akt at S473 and T308,"[6]; fat and liver, i.p., insulin stimulated mice",completely inhibit
same,phosphorylation of Akt,[6]; skeletal muscle,only partially able to inhibit
same,tolerability,Tolerability in rats,tolerated
same,tumor growth,"[7]; PP242 100 mg/kg, rapamycin 5 mg/kg, gavage daily, 20 days",no tumor growth
same,body weight,[7]; after 20 days of treatment,maintained body weight
same,phosphorylation of SGK1,SGK1 phosphorylation,completely abolished
same,retention of 4EBP1 on eIF-4E (m7GTP pull-down),4EBP1 binding to eIF-4E,caused a greater retention of 4EBP1
same,anti-CD3 mediated phosphorylation of Akt-S473,[8],inhibits
same,anti-CD3 mediated phosphorylation of S6,[8],inhibits
same,phosphorylation of Akt and its substrates,[9],partially inhibited
same,insulin stimulated phosphorylation of Akt at S473 and T308,[10],inhibit insulin stimulated phosphorylation of Akt at S473
same,phosphorylation of p70S6K and 4EBP1,[11],more complete inhibitor of 4EBP1 phosphorylation under the conditions tested than rapamycin
same,tolerability,Tolerability in mice,tolerated
same,mTORC2/AKT and mTORC1 signaling in B-ALL,[12],completely inhibits mTORC2/AKT and mTORC1 signaling
same,p70S6K phosphorylation,p70S6K phosphorylation,eliminated the band detected by anti-phospho p70S6K antibody
same,T1/2 of effect on Na+ current,[13]; FIG. 29B,approximately 15 minutes
same,amiloride-sensitive Na+ current,[13]; at a concentration of 0.3 μM,completely abolished
same,aldosterone-induced Na+ current,[13]; mpkCCD cells,completely blocked aldosterone-induced current
same,genetic toxicology (mini-Ames test),[14],clean profile
same,phosphorylation of Akt T308,[15]; SIN1−/− MEFs,has no effect
same,phosphorylation of Akt at S473 and T308,[15]; wild-type MEFs,inhibits the phosphorylation of Akt at both S473 and T308
same,PI3K signaling (PIP3 accumulation),[16],had no significant effect
